Laboratory results reported in PubChem BioAssay AID1324 (NMMLSC, 2008).
Active and inactive are the calls of the source. How the calls were made is not given here.

Biological target: glutathione S-transferase (GST-GSH binding)
Experiment: GST–glutathione interaction disruption – biochemical, multiplex beads, flow cytometry, HPSMTB buffer, profiling panel (AID 1324);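 further: glutathione beads loaded with GST-green fluorescent protein and no fluorescent Bim peptide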
Conditions: multiplex bead flow cytometry, MCF; for percent span inhibition: active compounds read high, concentration not given here

| SMILES | EC50 | percent span inhibition |
| --- | --- | --- |
| COc1ccc(C2=Nn3c(nnc3-c3ccco3)SC2)cc1OC | 4.6 µM |  |
| CCOc1cccc(CNc2ccc(O)cc2)c1OCc1ccc(Cl)cc1 |  | inactive |
| COc1cccc(N2CC(C(=O)Nc3nnc(SCC(=O)c4ccccc4)s3)CC2=O)c1 (configuration not stated) |  | inactive |
| CCOC(=O)c1ccc(Nc2nc(C(=O)OCC)nc3ccccc23)cc1 | 2.38 µM |  |
| COC(=O)Cc1cc(=O)[nH]c(Nc2nc3ccccc3o2)n1 |  | inactive |
| CCOC(=O)c1nc(Nc2ccc(Nc3ccccc3)cc2)c2ccccc2n1 |  | inactive |
| O=C(C1=NN(c2ccccc2)C2C(=O)N(c3ccccc3)C(=O)C12)c1ccccc1 (configuration not stated) |  | inactive |
| CN(C(=O)NC1CCCCC1)c1ccccc1 |  | inactive |
| O=C(C1=NN[C@@H]2C(=O)N(c3cccc(F)c3)C(=O)[C@H]12)c1ccc2ccccc2n1 |  | inactive |
| Cc1ccnc(SCc2cc(=O)c(OC(=O)c3ccc(Cl)c([N+](=O)[O-])c3)co2)n1 | inactive |  |
| CCOC(=O)c1c(NC(C)=O)sc2c(O)c(Br)cc(Br)c12 |  | inactive |
| O=C1c2ccccc2C(=O)c2cc(S(=O)(=O)Nc3ccccc3)ccc21 |  | inactive |
| CCN1CCN(c2cc(C)c3cc(NC(=S)N4CCN(c5ccc(F)cc5)CC4)ccc3n2)CC1 |  | inactive |
| CCCC(=O)OCCNc1cc(Sc2nccn2C)c2nonc2c1[N+](=O)[O-] |  | inactive |
| CCOC(=O)c1nn(-c2ccccc2)c(C#N)c1N |  | inactive |
| Cc1ccc(OCc2cn3cccnc3n2)cc1 |  | inactive |
| CCCCCCn1nc(C(=O)Nc2nc3c(s2)CCCC3)c2ccccc2c1=O |  | inactive |
| O=C(COc1ccccc1)Nc1ccc2c(c1)Cc1cc(NC(=O)COc3ccccc3)ccc1-2 |  | inactive |
| Cc1ccc(Nc2nc(CSc3nnc(-c4cccnc4)n3-c3ccccc3C)cs2)cc1 |  | inactive |
| O=C(C[n+]1ccc(-c2nnc3n2CCC3)cc1)c1ccc(Cl)cc1 |  | inactive |
| CCOC(=O)C1(CC/C(C)=N\NC(N)=O)CC(C)(C)OC1=O (configuration not stated) |  | inactive |
| O=[N+]([O-])c1ccc(N2CCN(c3ccc(O)cc3)CC2)c(Cl)c1 |  | inactive |
| CN(/N=C/c1cccnc1)C1=NS(=O)(=O)c2ccccc21 |  | inactive |
| Nc1ccc(Nc2nc(-c3ccncc3)cs2)cc1 |  | inactive |
| COC(=O)c1cc(OC)c(OC)cc1NC(=O)Nc1cccc(C(C)=O)c1 |  | inactive |

| SMILES | EC50 | percent span inhibition |
| --- | --- | --- |
| O=C(Cc1ccccc1)N/N=C/c1cccn1-c1ccc([N+](=O)[O-])cc1 |  | inactive |
| Cc1cc(C)nc(/N=C(\N)N2CCc3ccccc32)n1 |  | inactive |
| CC1CC2=C(NC(=S)NC2c2ccccc2F)/C(=C/c2ccccc2F)C1 (configuration not stated) |  | inactive |
| Cc1ccc2c(c1)C1CN(C)CCC1N2C(=O)Nc1cccc(Cl)c1 (configuration not stated) |  | inactive |
| N/C(Cc1ccc(Cl)c(Cl)c1)=N\OC(=O)c1cccs1 |  | inactive |
| Cc1ccc(-c2cc(C(=O)OCC(=O)N(C)C3CCS(=O)(=O)C3)c3ccccc3n2)o1 (configuration not stated) |  | inactive |
| COc1ccc(OC)c2sc(NC(=O)c3ccc(Br)s3)nc12 |  | inactive |
| C1=CC2c3ccccc3NC(c3ccncc3)C2C1 (configuration not stated) |  | inactive |
| O=C(c1cc2ccccc2oc1=O)N(c1ccccc1)C1C=CS(=O)(=O)C1 (configuration not stated) |  | inactive |
| COCCCNc1nc(=S)[nH]c2cc(OC)c(OC)cc12 | 5.35 µM |  |
| COc1cc(CNc2ccc(N3CCCC3)cc2)cc(Cl)c1OC |  | inactive |
| N/C(=N\N=C/c1ccc(Br)cc1)N/N=C\c1ccc(Br)cc1 |  | inactive |
| CCOc1cc(C2Nc3cccc4cccc(c34)N2)ccc1O |  | inactive |
| Fc1ccccc1/C=C1\CCCC2=C1NC(=S)NC2c1ccccc1F (configuration not stated) |  | inactive |
| FC(F)(F)c1ccc2c(c1)C1C=CCC1C(c1ccncc1)N2 (configuration not stated) |  | inactive |
| N#Cc1cc(-c2ccccc2)nn1-c1ccccc1 |  | inactive |
| O=c1[nH]c2ccc(N=Cc3c(O)ccc4cc(Br)ccc34)cc2[nH]1 |  | inactive |
| O=C1N/C(=C/c2cccn2-c2ccccc2)C(=O)N1Cc1ccc(F)cc1 |  | inactive |
| CCOc1ccc(CNc2ccc(N3CCCC3)cc2)cc1 |  | inactive |
| Cc1cc2n(c1)CCn1c(C)ccc1-2 |  | inactive |
| COc1ccc(N2CCN(CCCNC(=O)CCCn3c(=O)[nH]c4ccsc4c3=O)CC2)cc1 |  | inactive |
| CC(C(=O)Nc1cc([N+](=O)[O-])ccc1Cl)N1CCN(c2ccc(O)cc2)CC1 (configuration not stated) |  | inactive |
| O=C(CSc1nnc(-c2ccco2)n1Cc1ccccc1)c1ccccc1 |  | inactive |
| O=C(NCC1CCCO1)c1ccc2c(=O)n(-c3ccc(F)cc3)c(=S)[nH]c2c1 (configuration not stated) |  | inactive |
| C#CCOCCOCCOCCNc1nc(N2CCN(C(=O)[C@H]([C@@H](C)CC)n3cc([C@@H](N)CC(C)C)nn3)CC2)nc(N2CCN(C(=O)[C@H](Cc3cc4ccccc4[nH]3)n3cc([C@@H](N)Cc4ccc(O)cc4)nn3)CC2)n1 |  | inactive |

| SMILES | EC50 | percent span inhibition |
| --- | --- | --- |
| O=[N+]([O-])c1ccc2[nH]nc(-c3ccccc3)c2c1 |  | inactive |
| COC(=O)c1ccc(-n2nnnc2SCC(=O)Nc2cc(OC)ccc2OC)cc1 |  | inactive |
| CN1N=C(C(=O)N2CCCC(C(=O)c3cccc(C(F)(F)F)c3)C2)CCC1=O (configuration not stated) |  | inactive |
| Cc1ccc(C(=O)N/N=C2/NC(=O)CC(C(=O)Nc3ccccc3)S2)cc1 (configuration not stated) |  | inactive |
| CC(=O)c1ccc2c(c1)C1C=CCC1C(c1ccncc1)N2 (configuration not stated) |  | inactive |
| O=C1c2ccccc2-c2onc3ccc(NCc4ccco4)c1c23 | inactive |  |
| CC1(C(=O)N(CC(=O)NC2CCCC2)Cc2ccco2)CC(=O)N=C2C=CC=CN21 (configuration not stated) |  | inactive |
| Cc1ccccc1/C=N/Nc1ccnc2cc(Cl)ccc12 |  | inactive |
| Cc1ccc(C(=O)/C=C/c2ccc(-c3ccc(C)cc3)o2)cc1 |  | inactive |
| COc1ccc(N2CCN(C(CNS(=O)(=O)c3ccc4c(c3)OCCO4)c3ccco3)CC2)cc1 (configuration not stated) |  | inactive |
| COc1ccccc1-n1c(-c2cc(-c3ccc(F)cc3)n[nH]2)n[nH]c1=S |  | inactive |
| CCOc1cc(CNc2ccc(N3CCCCC3)cc2)cc(Br)c1OCC(=O)NC(C)(C)C |  | inactive |
| COc1ccc(C(=S)N2CCCCCC2)cc1 |  | inactive |
| Cn1c(N)c(C(=O)COC(=O)c2cc(-c3ccco3)nc3ccccc23)c(=O)n(Cc2ccccc2)c1=O |  | inactive |
| CCOc1ccccc1CNc1ccc(O)cc1 |  | inactive |
| CCOc1ccc(C2=Nn3c(nnc3-c3ccccn3)SC2)cc1 |  | inactive |
| CCCCOc1ccc(Cc2c(Cl)nc(SC)nc2N2CCOCC2)cc1 |  | inactive |
| CCN(CC)c1ccc(NC2=C(Cl)C(=O)c3ccccc3C2=O)cc1 | inactive |  |
| COc1ccc(OC)c(Nc2ccc(C(=O)O)cc2[N+](=O)[O-])c1 |  | inactive |
| CNC(=S)N(Cc1cccs1)Cc1cc2ccc(OC)cc2[nH]c1=O |  | inactive |
| O=C(Nc1cccc(Cl)c1)Nc1ccc(Cl)cn1 |  | inactive |
| COc1ccc(/C=C/C(=O)c2cc(Br)ccc(=O)c2O)cc1 |  | inactive |
| O=C(COc1ccccc1Br)NCc1ccccn1 |  | inactive |
| COc1ccc(NC(=O)COc2ncnc3ccccc23)cc1S(=O)(=O)N1CCOCC1 |  | inactive |
| COC(=O)CCC(=O)Nc1sc(C)c(C)c1C(N)=O |  | inactive |

| SMILES | EC50 | percent span inhibition |
| --- | --- | --- |
| CCOc1ccccc1NC(=O)CSc1nnc2ccc(-c3cccnc3)nn12 |  | inactive |
| COc1cc(N=c2ssnc2Cl)cc(OC)c1 |  | inactive |
| Cc1nc2ncccn2c1-c1csc(Nc2ccccc2)n1 |  | inactive |
| CCCn1c(C)cc(-c2csc(N)n2)c1C |  | inactive |
| Cn1c(=O)c2cc(S(=O)(=O)Nc3cc(C(=O)O)cc(C(=O)O)c3)ccc2n(C)c1=O |  | inactive |
| C#CCOCCOCCOCCNc1nc(N2CCN(C(=O)[C@H](CCCCN)n3cc(CCCC)nn3)CC2)nc(N2CCN(C(=O)[C@H](Cc3ccc(O)cc3)n3cc(CCO)nn3)CC2)n1 |  | inactive |
| COc1cc(/C=C2/NC(=O)N(Cc3ccccc3F)C2=O)cc(OC)c1O |  | inactive |
| COc1cc(N=c2ssnc2Cl)cc(OC)c1OC |  | inactive |
| CCN=c1scc(C)n1/N=C/c1ccc(O)c(O)c1O | inactive |  |
| O=C(Nc1cccc(Cl)c1)Nc1ccnc(-c2cccnc2)n1 | inactive |  |
| Cc1ccc(/C=C2\CCCC3=C2NC(=S)NC3c2ccc(C)cc2)cc1 (configuration not stated) |  | inactive |
| Cc1ccc(C)c(NC(=O)C(=O)NCc2ccccn2)c1 |  | inactive |
| CC(=O)NC1=C(NC2CCS(=O)(=O)C2)C(=O)c2ccccc2C1=O (configuration not stated) |  | inactive |
| O=C(c1cnccn1)N1CCN(c2ccccc2F)CC1 |  | inactive |
| CN=c1scc(-c2cccs2)n1/N=C/c1ccc(O)c(O)c1O |  | inactive |
| c1cncc(-c2nnc3n2N=C(c2cccs2)CS3)c1 |  | inactive |
| O=C(CSc1nnc(Cc2ccccc2)o1)NCc1ccco1 |  | inactive |
| CN(Cc1ccccc1)C(=O)c1[nH]cnc1C(=O)N[C@@H](CCCCNC(=O)OC(C)(C)C)C(=O)OC(C)(C)C |  | inactive |
| O=C(c1cccc(Br)c1)N1CCN(c2cnn(-c3ccccc3)c(=O)c2Cl)CC1 |  | inactive |
| O=C(O)CC/C(=C\c1cc([N+](=O)[O-])ccc1Cl)c1nc2ccccc2s1 |  | inactive |
| CC1=C2C(CCS2(=O)=O)CC2(C1)C(=O)OC(C)(C)OC2=O (configuration not stated) |  | inactive |
| Cc1ccc(S(=O)(=O)N(C)CC(=O)N2CCc3ccccc32)cc1 |  | inactive |
